Source: patent US9085806B2, “Methods for treating infection involving identification of a carbapanemase gene” (priority 2007, dated 2015)

Assays:
Assay in all cases: Antimicrobial susceptibility testing, broth microdilution (CLSI)
Type in all cases: cell-based
E. coli Strain ID 301921 = settings: Escherichia coli; Strain ID 301921 ESCCOL, ESBL positive; Mueller-Hinton broth; read-out: minimum inhibition concentration (MIC)
Description: (§1) Carbapenem-resistant Klebsiella and E. coli were identified by broth microdilution as described by CLSI from the BD ID/AST microbial bank (1). Wild-type (Ampicillin sensitive) E. coli ATCC 25922 (Strain ID 300960) was used through out the experiments as a negative control. Three strains previously determined to contain KPC-1, KPC-2, and KPC-3 (Strain ID 301916=KPC-1, 301917=KPC-2, 301918=KPC-3) were used as positive controls (4). […] ESBL positive strains were identified using the CLSI recommended broth microdilution assay (2). Prior to any processing or extraction, all strains were streaked out on Trypticase Soy Agar (TSA) plates containing 5% Sheep red blood cells (BD Diagnostic Systems, Sparks, Md.) and grown at 35° C. overnight.
(§2) Antimicrobial susceptibility testing was performed using Mueller-Hinton broth (BD Diagnostic Systems, Sparks, Md.) as described by CLSI (1). Antimicrobial powders were acquired from the following companies; Ampicillin (Amp) and Cefotaxime (CTX) (Sigma Chemical Co., St. Louis, Mo.), Ceftazidime (CAZ) (Eli Lilly, Indianapolis, Ind.), Clavulanic acid (Smith-Kline, King of Prussia, Pa.), Imipenem (IPM) (Merck & Co., Rahway, N.J.).
(§3) The BD ID/AST Microbial Bank was screened for carbapenem-resistant Klebsiella and E. coli with broth microdilution as described by CLSI (2). Klebsiella spp. and E. coli were chosen because they are the primary reservoir species for the plasmid-borne KPC gene.
(§4) ESBL positive strains were identified using the CLSI recommended broth microdilution assay (2). Briefly, this broth microdilution assay has a two-fold dilution scheme between a defined range of the antimicrobial agent. For example, where the defined range of the antimicrobial agent is […], the two-fold dilution between wells is represented by 0.25, 0.5, 1, 2, 4, 8, and 16 μg/ml. To identify ESBL positive strains, growth is evaluated in wells containing the antimicrobial agent of interest at these various two-fold dilutions across the defined range either alone or in combination with Clavulanic acid in order to determine the MIC for the antimicrobial agent alone or in combination with Clavulanic acid. […] A wild-type E. coli Strain ID 300960 was also screened and used as a negative control for all of the real-time assays.

E. coli Strain ID 301905 = settings: Escherichia coli; Strain ID 301905 ESCCOL; Mueller-Hinton broth; read-out: minimum inhibition concentration (MIC)
Description: as §1, §2, §3, §4

[1] = tested on: Klebsiella pneumoniae Strain ID 301917 (KPC-2); settings: Strain ID 301917 KLEPNEP, KPC-2 positive control, ESBL positive, Mueller-Hinton broth, read-out: minimum inhibition concentration (MIC)
Description: as §1, §2, §3, §4

[2] = tested on: Klebsiella pneumoniae Strain ID 301916 (KPC-1); settings: Strain ID 301916 KLEPNEP, KPC-1 positive control, Mueller-Hinton broth, read-out: minimum inhibition concentration (MIC)
Description: as §1, §2, §3, §4

E. coli Strain ID 301922 = settings: Escherichia coli; Strain ID 301922 ESCCOL, ESBL positive; Mueller-Hinton broth; read-out: minimum inhibition concentration (MIC)
Description: as §1, §2, §3, §4

[3] = tested on: Klebsiella pneumoniae Strain ID 301919; settings: Strain ID 301919 KLEPNEP, ESBL positive, Mueller-Hinton broth, read-out: minimum inhibition concentration (MIC)
Description: as §1, §2, §3, §4

E. coli Strain ID 301894 = settings: Escherichia coli; Strain ID 301894 ESCCOL, ESBL positive; Mueller-Hinton broth; read-out: minimum inhibition concentration (MIC)
Description: as §1, §2, §3, §4

[4] = tested on: Klebsiella pneumoniae Strain ID 300996; settings: Strain ID 300996 KLEPNEP, ESBL positive, Mueller-Hinton broth, read-out: minimum inhibition concentration (MIC)
Description: as §1, §2, §3, §4

[5] = tested on: Klebsiella pneumoniae Strain ID 301008; settings: Strain ID 301008 KLEPNEP, Mueller-Hinton broth, read-out: minimum inhibition concentration (MIC)
Description: as §1, §2, §3, §4

[6] = tested on: Klebsiella pneumoniae Strain ID 301891; settings: Strain ID 301891 KLEPNEP, Mueller-Hinton broth, read-out: minimum inhibition concentration (MIC)
Description: as §1, §2, §3, §4

E. coli Strain ID 301896 = settings: Escherichia coli; Strain ID 301896 ESCCOL, ESBL positive; Mueller-Hinton broth; read-out: minimum inhibition concentration (MIC)
Description: as §1, §2, §3, §4

[7] = tested on: Klebsiella pneumoniae Strain ID 301920; settings: Strain ID 301920 KLEPNEP, ESBL positive, Mueller-Hinton broth, read-out: minimum inhibition concentration (MIC)
Description: as §1, §2, §3, §4

[8] = tested on: Klebsiella pneumoniae Strain ID 301899; settings: Strain ID 301899 KLEPNEP, Mueller-Hinton broth, read-out: minimum inhibition concentration (MIC)
Description: as §1, §2, §3, §4

[9] = tested on: E. coli ATCC 25922 (Strain ID 300960); settings: Escherichia coli, ATCC25922; Strain ID 300960 ESCCOL, wild-type negative control; Mueller-Hinton broth; read-out: minimum inhibition concentration (MIC)
Description: as §1, §2, §3, §4

E. coli Strain ID 301888 = settings: Escherichia coli; Strain ID 301888 ESCCOL, ESBL positive; Mueller-Hinton broth; read-out: minimum inhibition concentration (MIC)
Description: as §1, §2, §3, §4

[10] = tested on: Klebsiella oxytoca Strain ID 300967; settings: Strain ID 300967 KLEOXY, Mueller-Hinton broth, read-out: minimum inhibition concentration (MIC)
Description: as §1, §2, §3, §4

[11] = tested on: Klebsiella oxytoca Strain ID 303990; settings: Strain ID 303990 KLEOXY, Mueller-Hinton broth, read-out: minimum inhibition concentration (MIC)
Description: as §1, §2, §3, §4

[12] = tested on: Klebsiella pneumoniae Strain ID 303375; settings: Strain ID 303375 KLEPNEP, Mueller-Hinton broth, read-out: minimum inhibition concentration (MIC)
Description: as §1, §2, §3, §4

E. coli Strain ID 303364 = settings: Escherichia coli; Strain ID 303364 ESCCOL; Mueller-Hinton broth; read-out: minimum inhibition concentration (MIC)
Description: as §1, §2, §3, §4

E. coli Strain ID 303365 = settings: Escherichia coli; Strain ID 303365 ESCCOL, ESBL positive; Mueller-Hinton broth; read-out: minimum inhibition concentration (MIC)
Description: as §1, §2, §3, §4

[13] = tested on: Klebsiella pneumoniae Strain ID 301898; settings: Strain ID 301898 KLEPNEP, Mueller-Hinton broth, read-out: minimum inhibition concentration (MIC)
Description: as §1, §2, §3, §4

E. coli Strain ID 303369 = settings: Escherichia coli; Strain ID 303369 ESCCOL; Mueller-Hinton broth; read-out: minimum inhibition concentration (MIC)
Description: as §1, §2, §3, §4

[14] = tested on: E. coli Strain ID 301918 (KPC-3); settings: Escherichia coli; Strain ID 301918 ESCCOL, KPC-3 positive control; Mueller-Hinton broth; read-out: minimum inhibition concentration (MIC)
Description: as §1, §2, §3, §4

E. coli Strain ID 301892 = settings: Escherichia coli; Strain ID 301892 ESCCOL, ESBL positive; Mueller-Hinton broth; read-out: minimum inhibition concentration (MIC)
Description: as §1, §2, §3, §4

MIC (E. coli Strain ID 301921)	MIC (E. coli Strain ID 301905)	MIC [1]	MIC [2]	MIC (E. coli Strain ID 301922)	MIC [3]	MIC (E. coli Strain ID 301894)	MIC [4]	MIC [5]	MIC [6]	MIC (E. coli Strain ID 301896)	MIC [7]	MIC [8]	MIC [9]	MIC (E. coli Strain ID 301888)	MIC [10]	MIC [11]	MIC [12]	MIC (E. coli Strain ID 303364)	MIC (E. coli Strain ID 303365)	Compound	further results
> 32 µg/mL	> 32 µg/mL	> 32 µg/mL	> 32 µg/mL	> 32 µg/mL	> 32 µg/mL	> 32 µg/mL	> 32 µg/mL	16 µg/mL	> 32 µg/mL	> 32 µg/mL	> 32 µg/mL	> 32 µg/mL	≤ 0.25 µg/mL	> 32 µg/mL	> 32 µg/mL	> 32 µg/mL	> 32 µg/mL	> 32 µg/mL	> 32 µg/mL	CC1(C)S[C@@H]2[C@H](NC(=O)[C@H](N)c3ccccc3)C(=O)N2[C@H]1C(=O)O [Amp, Ampicillin]	MIC [13]: > 32 µg/mL; MIC (E. coli Strain ID 303369): > 32 µg/mL; MIC [14]: > 32 µg/mL; MIC (E. coli Strain ID 301892): > 32 µg/mL
> 64 µg/mL	> 64 µg/mL	32 µg/mL	> 64 µg/mL	> 64 µg/mL	16 µg/mL	16 µg/mL	2 µg/mL	≤ 0.25 µg/mL	4 µg/mL	64 µg/mL	> 64 µg/mL	> 64 µg/mL	≤ 0.25 µg/mL	32 µg/mL	> 64 µg/mL	> 64 µg/mL	32 µg/mL	32 µg/mL	> 64 µg/mL	CO/N=C(\C(=O)N[C@@H]1C(=O)N2C(C(=O)O)=C(COC(C)=O)CS[C@H]12)c1csc(N)n1 [CTX, Cefotaxime]	MIC [13]: > 64 µg/mL; MIC (E. coli Strain ID 303369): 32 µg/mL; MIC [14]: > 64 µg/mL; MIC (E. coli Strain ID 301892): 32 µg/mL
≤ 2 µg/mL	8 µg/mL	8 µg/mL	8 µg/mL	≤ 0.25 µg/mL	≤ 2 µg/mL	≤ 2 µg/mL	8 µg/mL	≤ 2 µg/mL	≤ 2 µg/mL	≤ 2 µg/mL	≤ 2 µg/mL	4 µg/mL	≤ 0.25 µg/mL	4 µg/mL	> 16 µg/mL	16 µg/mL	≤ 2 µg/mL	≤ 2 µg/mL	≤ 2 µg/mL	C[C@@H](O)[C@H]1C(=O)N2C(C(=O)O)=C(SCCN=CN)C[C@H]12 [IPM, Imipenem]	MIC [13]: 4 µg/mL; MIC (E. coli Strain ID 303369): ≤ 2 µg/mL; MIC [14]: 16 µg/mL; MIC (E. coli Strain ID 301892): 4 µg/mL

Compound	MIC (E. coli Strain ID 301921)	MIC (E. coli Strain ID 301905)	MIC [1]	MIC [2]	MIC (E. coli Strain ID 301922)	MIC [3]	MIC (E. coli Strain ID 301894)	MIC [4]	MIC [5]	MIC [6]	MIC (E. coli Strain ID 301896)	MIC [7]	MIC [8]	MIC [9]	MIC (E. coli Strain ID 301888)	MIC [10]	MIC [11]	MIC [12]	MIC (E. coli Strain ID 303364)	MIC (E. coli Strain ID 303365)	further results
CC(C)(O/N=C(\C(=O)N[C@@H]1C(=O)N2C(C(=O)[O-])=C(C[n+]3ccccc3)CS[C@H]12)c1csc(N)n1)C(=O)O [CAZ, Ceftazidime]	32 µg/mL	32 µg/mL	4 µg/mL	> 128 µg/mL	16 µg/mL	32 µg/mL	> 128 µg/mL	4 µg/mL	≤ 0.25 µg/mL	16 µg/mL	> 128 µg/mL	64 µg/mL	> 128 µg/mL	≤ 0.5 µg/mL	64 µg/mL	128 µg/mL	128 µg/mL	64 µg/mL	128 µg/mL	> 128 µg/mL	MIC [13]: > 128 µg/mL; MIC (E. coli Strain ID 303369): 64 µg/mL; MIC [14]: > 128 µg/mL; MIC (E. coli Strain ID 301892): 64 µg/mL
